Test results published in patent publication US20020049173A1, “Alteration of cellular behavior by antisense modulation of mRNA processing” (priority 1999, published 2002).
In the oligonucleotide strings, read from the 5' end, every base follows the letter of its sugar. An asterisk marks phosphorothioate; unmarked linkages are phosphodiester. Other units and linkages are bracketed, terminal groups are in braces. A string of capitals states the bases alone. e = 2'-O-(2-methoxyethyl) (MOE); [5mC] = 5-methylcytosine

How the values were obtained:
TF-1 cells [1] = experiment: Apoptosis induction in TF-1 cells, Annexin-V staining; assay type: cell-based, human; conditions: 48 hours, IL-5 0.5 ng/ml
Protocol: 1×10^6 TF-1 cells cultured in IL-5 (0.5 ng/ml) were collected 48 hours following oligonucleotide treatment (transfection was by electroporation as described in previous examples) and phosphatidylserine expression was detected as a measure of apoptosis using the Annexin-V staining kit (Clontech, Palo Alto, Calif.) according to the manufacturer's instructions. Briefly, cells were resuspended in 0.2 ml of staining buffer (10 mM Hepes, pH 7.4, 140 mM NaCl, 5 mM CaCl2) and […] of propidium iodide (50 μg/ml) and 5 μl of Annexin V reagent were added at 4° C. for 10 minutes. The samples were diluted with FacsFlow (Becton Dickinson, Franklin Lakes N.J.) buffer and analyzed on a Becton Dickinson FACScan.

[2] = system: Human IL-5 receptorα membrane form mRNA; experiment: Human IL-5 receptorα membrane form mRNA expression (18 hr); assay type: cell-based; set-up: % INHIB'N, human IL-5 receptorα membrane form mRNA / % of CONTROL, human IL-5 receptorα membrane form mRNA: concentration or dose not given beside the values; conditions: 18 hr
Text: mRNA transcripts encoding the membrane form of the human IL-5 receptorα contain exons 1-10 and 12-14. Exon 11 is spliced out. It is, therefore, possible to target sequences in exons 1-10 which are common to both soluble and membrane forms of the receptor, or to selectively target sequences only present in the membrane form (exons 12-14). Oligonucleotides were also designed to target various intron/exon boundaries downstream of exon 11, with the intention of preventing successful splicing out of exon 11 and thus redirecting splice products away from the membrane form and in favor of the soluble form of IL-5 receptorα.
(§1) A series of oligonucleotides were designed to target various splice sites or (intron-exon boundaries) in the IL-5 receptor mRNA.

TF-1 cells [3] = experiment: IL-5-induced TF-1 cell proliferation, [3H]-thymidine incorporation; assay type: cell-based, human; conditions: compared to untreated controls
Protocol: 2.5×10^4 TF-1 cells were incubated in 96-well plates in 200 μl complete RPMI in the absence of IL-5 for 16 hours following electroporation. IL-5 (0.5 ng/ml) was added and the cultures were pulsed with 1 μCi of [^3H]-thymidine for the last 8 hours of a 48-hour culture period. The cells were harvested on glass fiber filters and analyzed for thymidine incorporation (proportional to cell proliferation) by liquid scintillation counting.
Results are compared to thymidine incorporation in untreated controls.

Human IL-5 receptorα = Human IL-5 receptorα protein expression on the cell surface (36 hr), TF-1 cells; assay type: cell-based; set-up: % INHIB, human IL-5 receptorα protein on the cell surface / % of CONTROL, human IL-5 receptorα protein on the cell surface: concentration or dose not given beside the values; conditions: 36 hr
Text: as §1
ISIS 16746, 16748, 16755 and 16758 inhibited human IL-5 receptorα protein by over 50% in this assay and are therefore preferred. ISIS 16758 and 16755 were chosen for further study.

[4] = system: Human IL-5 receptorα soluble form mRNA; experiment: Human IL-5 receptorα soluble form transcript, Northern blot; assay type: cell-based; conditions: Northern blot analysis
Text: ISIS 16746, 16748 and 16755 inhibited IL-5 receptor mRNA expression by over 50% and are therefore preferred in this assay. […] Thus it is believed that ISIS 16755 redirects splicing in favor of the membrane form, as is consistent with data obtained with other non-RNAse H (e.g., uniform 2′-methoxyethoxy) oligonucleotides targeted to splice sites.

E-selectin mRNA [5] = experiment: Stability of E-selectin messages after TNF-α removal (Northern blot, HUVEC); assay type: cell-based, human; conditions: 200 nM
Protocol: (§2) HUVEC (Clonetics, San Diego, Calif.) were cultivated in endothelial basal media supplemented with 10% fetal bovine serum. Cells were treated with oligonucleotides as described previously (Chiang, 1991, J. Biol. Chem. 27:18162-18171; Vickers, 2000, Nucleic Acids Res. 28:1340-1347). Briefly, cells were incubated with a mixture of Lipofectin (Gibco BRL, Gaithersburg, Md.) and oligonucleotide for 4 hours. Cells were incubated for 2-24 hours, then treated with 5 ng/ml TNF-α for 2-3 hours to induce expression of E-selectin. Cells were then washed extensively with phosphate buffered saline (PBS), fresh complete media was added and cells were incubated at 37° C. until harvested.
Total RNA was harvested from HUVEC at various times following TNF-α induction using a ToTALLY RNA kit (Ambion) according to the manufacturer's protocol). For Northern blots, RNA was separated on a 1.2% agarose gel containing 1.1% formaldehyde, then transferred to nylon membranes. Blots were hybridized with [^32P]-dCTP random prime labeled cDNA probes specific for E-selectin or […] (G3PDH) for 2 hours in Rapid-hyb solution (Amersham). Blots were washed with 2×SSC containing 0.1% SDS at room temperature, followed by 0.1×SSC containing 0.1% SDS at 60° C. Quantitation of RNA expression was performed using a Molecular Dynamics PhosphorImager. […]

[6] = system: E-selectin mRNA (Type III polyadenylation signal and site); experiment: E-selectin transcript forms by Northern blot in TNF-α-induced HUVEC; assay type: cell-based, human; conditions: increasing oligonucleotide dose, TNF-α 2 hours
Protocol: as §2
(§3) Total RNA was harvested from HUVEC at various times following TNF-α induction using a ToTALLY RNA kit (Ambion) according to the manufacturer's protocol). For Northern blots, RNA was separated on a 1.2% agarose gel containing 1.1% formaldehyde, then transferred to nylon membranes. Blots were hybridized with [^32P]-dCTP random prime labeled cDNA probes specific for E-selectin or […] (G3PDH) for 2 hours in Rapid-hyb solution (Amersham). Blots were washed with 2×SSC containing 0.1% SDS at room temperature, followed by 0.1×SSC containing 0.1% SDS at 60° C. Quantitation of RNA expression was performed using a Molecular Dynamics PhosphorImager. Anchored reverse transcriptase polymerase chain reaction (RT/PCR) was performed essentially as described by Chu et al. (supra.).
HUVEC were treated with 2′-O-methoxyethyl (MOE)/phosphorothioate antisense oligonucleotides directed to the Type III polyadenylation signal and site (Table 1A) as described above. After about 24 hours, cells were treated with TNF-α to induce E-selectin expression. Cells were harvested after 2 hours and RNA was isolated. E-selectin expression was analyzed by Northern blotting. […] With increasing oligonucleotide dose, the longer Type III message decreased while a shorter message increased (FIG. 2). This shorter message most likely represents a combination of Type I and II messages, because the Type II message is just 158 bases longer than the Type I message, and the difference in sizes cannot be resolved on the gel which was used.

E-selectin = E-selectin cell surface protein expression by flow cytometry in HUVEC; assay type: cell-based, human; conditions: for time of maximal E-selectin protein expression: after addition of TNF-α
Protocol: as §2
Following oligonucleotide treatment, cells were detached with D-PBS (without calcium and magnesium) supplemented with 4 mM EDTA. Cells were centrifuged at 5,000 rpm for 1 minute and washed in 2% bovine serum albumin (BSA), 0.2% sodium azide in D-PBS at 4° C. E-selectin-phycoerythrin antibody (Ancell) was then added at 1:100 in 0.1 ml of the above buffer, and incubated for 30 min at 4° C. in the dark. Cells were washed again as above and resuspended in 0.3 ml of PBS buffer with 0.5% formaldehyde. Cells were analyzed for E-selectin expression on a FACScan (Becton-Dickinson). Results are expressed as percentage of control expression based upon the mean fluorescence intensity.
The treated cells were stimulated with TNF-α for 2 hours, then analyzed for E-selectin protein expression by flow cytometry. […] Results at the protein level are not as dramatic as at the RNA level due to the fact that the Type III message remains the predominant RNA species present (FIG. 2). Any change in protein stability resulting from the presence of the type I/II message would likely be partially masked by the more abundant Type III RNA.

E-selectin mRNA [7] = experiment: Non-quantitative RT-PCR of E-selectin Type I, II and III transcripts in HUVEC; assay type: cell-based, human; conditions: relative to untreated cells, 200 nM stated for ISIS 106344
Protocol: as §3
To determine if processing could be controlled more specifically, oligonucleotides were also designed to the upstream polyadenylation signals. Non-quantitative RT-PCR was used to distinguish among the three forms of the message. In the absence of oligonucleotide, all three types of transcript were detected. […] This difference may be due to variation in the efficiency of PCR amplification on the varying length products, with the shorter Type I and II messages being more efficiently amplified than the Type III product. […] To determine if the effects of ISIS 106344 were unique, antisense oligonucleotides were designed to the Type I and Type II polyadenylation sites.
To evaluate whether treatment with two oligonucleotides would result in the production of a single species of E-selectin message, HUVEC were treated with ISIS 106344, and either ISIS 135568 or ISIS 135570 (150 nM each). […] Cells were also treated with both ISIS 135568 and ISIS 135570.

Substance: 16758 (antisense eT*e[5mC]*eA*eT*e[5mC]*eA*eT*eT*eT*e[5mC]*e[5mC]*eT*eG*eG*eT*eG*eG*eA*eA*eA) [compound 16758]
- % Apoptotic cells (TF-1 cells [1]; oligo dose 10 μM): 33.1%
- % Apoptotic cells (TF-1 cells [1]; oligo dose 15 μM): 40.1%
- % Apoptotic cells (TF-1 cells [1]; oligo dose 20 μM): 50.4%
- % of CONTROL, human IL-5 receptorα membrane form mRNA [2]: 176%
- % of control thymidine incorporation (TF-1 cells [3]; oligo dose 10 μM): 42.8%
- % of control thymidine incorporation (TF-1 cells [3]; oligo dose 15 μM): 39.2%
- % of control thymidine incorporation (TF-1 cells [3]; oligo dose 20 μM): 19.9%
- % INHIB, human IL-5 receptorα protein on the cell surface (Human IL-5 receptorα): 94.5%
- % of CONTROL, human IL-5 receptorα protein on the cell surface (Human IL-5 receptorα): 5.5%

Substance: ISIS 16755: GAACACTTACATTTTACAGA, SEQ ID 34; E12/I12; 2′-MOE pattern not visible (antisense eG*eA*eA*e[5mC]*eA*e[5mC]*eT*eT*eA*e[5mC]*eA*eT*eT*eT*eT*eA*e[5mC]*eA*eG*eA)
- inhibition of the soluble form transcript [4]: without significantly inhibiting the soluble form
- % INHIB'N, human IL-5 receptorα membrane form mRNA [2]: over 50%
- % INHIB, human IL-5 receptorα protein on the cell surface (Human IL-5 receptorα): over 50%

Substance: ISIS 106344: CATAAGCACATTTATTGTCA, SEQ ID 66; uniformly 2′-MOE phosphorothioate; E-selectin Type III poly(A) signal (all 2'-MOE, all phosphorothioate, methylation of C not given here)
- stability of the shorter (type I/II) messages following TNF-α removal (E-selectin mRNA [5]): More than half of the shorter messages remained five hours
- time following TNF-α removal at which about one half of the type II message remained (E-selectin mRNA [5]; message printed as type II): ~2.5 h
- longer Type III E-selectin message (Northern blot) [6]: decreased
- shorter E-selectin message (Type I and II) (Northern blot) [6]: increased
- duration of E-selectin protein expression (E-selectin; TNF-α 2 hours, versus control oligonucleotide): sustained expression of E-selectin protein
- time of maximal E-selectin protein expression (E-selectin): four hours after addition of TNF-α
- Type I E-selectin message (RT-PCR) (E-selectin mRNA [7]): increased
- Type II E-selectin message (RT-PCR) (E-selectin mRNA [7]): increased
- Type III E-selectin message (RT-PCR) (E-selectin mRNA [7]): decrease

Substance: ISIS 106345: AGAAAGAGACTTAACACAGA, SEQ ID 67; uniformly 2′-MOE phosphorothioate; E-selectin Type III poly(A) site (all 2'-MOE, all phosphorothioate, methylation of C not given here)
- longer Type III E-selectin message (Northern blot) [6]: decreased
- shorter E-selectin message (Type I and II) (Northern blot) [6]: increased

Substance: ISIS 106346: CATCAGAACTTATATAGTCA, SEQ ID 68; 106344 mismatch control (all 2'-MOE, all phosphorothioate, methylation of C not given here) [reference compound]
- time of maximal E-selectin protein expression (E-selectin): four hours after addition of TNF-α
